Broadly, the EC50 is the concentration at which the effect is half-maximal.

T1 sequence (P13569 with tags, fused parts or gaps DEL508-508): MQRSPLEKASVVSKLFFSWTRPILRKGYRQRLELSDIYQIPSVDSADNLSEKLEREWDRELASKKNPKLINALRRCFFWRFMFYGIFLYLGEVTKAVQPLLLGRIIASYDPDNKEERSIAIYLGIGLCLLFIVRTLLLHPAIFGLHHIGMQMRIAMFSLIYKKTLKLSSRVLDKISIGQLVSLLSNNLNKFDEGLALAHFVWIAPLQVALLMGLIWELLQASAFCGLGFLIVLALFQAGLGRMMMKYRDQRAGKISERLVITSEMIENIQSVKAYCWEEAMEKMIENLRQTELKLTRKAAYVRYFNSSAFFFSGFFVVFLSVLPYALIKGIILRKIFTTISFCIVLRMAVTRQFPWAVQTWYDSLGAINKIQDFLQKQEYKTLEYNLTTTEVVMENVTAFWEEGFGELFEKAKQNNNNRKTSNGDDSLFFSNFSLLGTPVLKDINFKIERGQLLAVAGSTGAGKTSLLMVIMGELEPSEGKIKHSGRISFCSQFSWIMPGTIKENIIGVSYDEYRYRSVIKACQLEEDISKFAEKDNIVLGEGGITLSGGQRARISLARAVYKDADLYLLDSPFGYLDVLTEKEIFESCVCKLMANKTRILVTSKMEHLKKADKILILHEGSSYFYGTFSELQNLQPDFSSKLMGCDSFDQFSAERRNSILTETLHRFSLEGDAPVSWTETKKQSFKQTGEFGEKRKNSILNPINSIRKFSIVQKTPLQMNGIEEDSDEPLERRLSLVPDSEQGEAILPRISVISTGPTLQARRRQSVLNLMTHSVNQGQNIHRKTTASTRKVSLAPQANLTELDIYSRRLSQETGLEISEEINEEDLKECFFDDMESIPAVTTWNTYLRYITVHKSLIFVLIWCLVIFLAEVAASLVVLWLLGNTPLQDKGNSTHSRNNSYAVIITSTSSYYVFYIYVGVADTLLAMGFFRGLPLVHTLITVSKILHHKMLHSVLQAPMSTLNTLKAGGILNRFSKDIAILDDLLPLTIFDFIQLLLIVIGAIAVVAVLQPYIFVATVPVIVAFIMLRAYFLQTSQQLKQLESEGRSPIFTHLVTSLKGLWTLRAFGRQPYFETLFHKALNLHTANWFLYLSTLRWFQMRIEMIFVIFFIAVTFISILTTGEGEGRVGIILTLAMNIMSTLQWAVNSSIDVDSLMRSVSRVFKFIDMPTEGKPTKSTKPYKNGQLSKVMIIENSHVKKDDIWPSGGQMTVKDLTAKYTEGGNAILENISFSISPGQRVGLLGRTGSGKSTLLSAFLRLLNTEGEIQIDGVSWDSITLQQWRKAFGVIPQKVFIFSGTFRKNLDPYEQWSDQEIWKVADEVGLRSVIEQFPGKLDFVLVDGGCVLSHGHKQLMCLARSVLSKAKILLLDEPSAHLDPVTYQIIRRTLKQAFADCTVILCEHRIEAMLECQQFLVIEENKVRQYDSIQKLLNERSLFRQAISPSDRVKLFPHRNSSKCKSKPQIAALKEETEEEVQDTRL

The first experiment addresses T1, ΔF508-CFTR (Homo sapiens, UniProt P13569, DEL508-508).
T1 construct: expressed in transfected cells
As to the kind of experiment: Membrane potential optical assay (FRET voltage-sensor dyes, VIPR), identification of potentiator compounds. Type of experiment: cell-based. The note with it: Table 3; assay not given. In a few lines: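 Potentiator screen measured membrane potential via FRET between CC2-DMPE donor and DiSBAC2(3), read on VIPR II. Compound went in with the first addition of chloride-free gluconate bath; cells were ΔF508-CFTR-expressing NIH3T3 mouse fibroblasts, temperature-corrected at 27 °C for 24 h.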
As to `CCc1ccc(N)cc1NC(=O)c1c[nH]c2ccccc2c1=O` [Compound 282, N-(5-amino-2-ethyl-phenyl)-4-oxo-1H-quinoline-3-carboxamide], the concentration giving a half-maximal response (EC50) was less than 10 µM.
Still for that read-out and setting: to `Nc1cc(Cl)cc(NC(=O)c2c[nH]c3ccccc3c2=O)c1` [Compound 131, N-(3-amino-5-chloro-phenyl)-4-oxo-1H-quinoline-3-carboxamide] belongs less than 10 µM.

The experiment is the same for the next values; noted with them: Table 3; assay not given; read-out: % Activity (% Efficacy, relative efficacy).
`CC1(c2cc(F)c(NC(=O)c3c[nH]c4cccc(O)c4c3=O)cc2O)CCCCC1` [Compound 287, N-[2-fluoro-5-hydroxy-4-(1-methylcyclohexyl)-phenyl]-5-hydroxy-4-oxo-1H-quinoline-3-carboxamide]: the Emax was in the range of 25 to 100%.
As for `CC(C)c1ccc(NC(=O)c2c[nH]c3cc(F)c(F)cc3c2=O)c(C(F)(F)F)c1` [Compound 589, 6,7-difluoro-N-[4-isopropyl-2-(trifluoromethyl)phenyl]-4-oxo-1H-quinoline-3-carboxamide], the Emax fell in the range of 25 to 100%.
`Cc1cccc2c(=O)c(C(=O)Nc3cc4[nH]ccc4cc3C(C)(C)C)c[nH]c12` [Compound 644, 8-methyl-4-oxo-N-(5-tert-butyl-1H-indol-6-yl)-1H-quinoline-3-carboxamide]: the Emax is less than 25%.
Same read-out and setting: to `CCc1ccc(N)cc1NC(=O)c1c[nH]c2ccccc2c1=O` [Compound 282, N-(5-amino-2-ethyl-phenyl)-4-oxo-1H-quinoline-3-carboxamide] belongs 25 to 100%; to `COc1ccc(NC(=O)c2c[nH]c3ccccc3c2=O)cc1OC` [Compound 122, N-(3,4-dimethoxyphenyl)-4-oxo-1H-quinoline-3-carboxamide], less than 25%; to `COc1cc2c(=O)c(C(=O)Nc3cc(O)c(C(C)(C)C)cc3C(C)(C)C)c[nH]c2cc1F` [Compound 709, 7-fluoro-N-(5-hydroxy-2,4-ditert-butyl-phenyl)-6-methoxy-4-oxo-1H-quinoline-3-carboxamide], more than 100%.
In the case of `COc1ccccc1-c1ccccc1NC(=O)c1c[nH]c2ccccc2c1=O` [Compound 355, N-[2-(2-methoxyphenyl)phenyl]-4-oxo-1H-quinoline-3-carboxamide], the Emax lay in the range of 25 to 100%.
On the same count and under the same terms, to `O=C(Nc1ccc(N2CCC(CO)CC2)cc1C(F)(F)F)c1c[nH]c2ccccc2c1=O` [Compound 668, N-[4-[4-(hydroxymethyl)-1-piperidyl]-2-(trifluoromethyl)phenyl]-4-oxo-1H-quinoline-3-carboxamide] belongs 25 to 100%; to `CC(=O)Nc1cc(NC(=O)c2c[nH]c3ccccc3c2=O)cc(C(F)(F)F)c1` [Compound 379, N-[3-acetylamino-5-(trifluoromethyl)phenyl]-4-oxo-1H-quinoline-3-carboxamide], 25 to 100%; to `Nc1cc(Cl)cc(NC(=O)c2c[nH]c3ccccc3c2=O)c1` [Compound 131, N-(3-amino-5-chloro-phenyl)-4-oxo-1H-quinoline-3-carboxamide], 25 to 100%.
On the same count and under the same terms, to `CCCCOC(=O)NCC(C)(C)c1ccc(NC(=O)c2c[nH]c3ccccc3c2=O)cc1` [Compound 460, [2-methyl-2-[4-[(4-oxo-1H-quinolin-3-yl)carbonylamino]phenyl]-propyl]aminoformic acid butyl ester] belongs 25 to 100%; to `O=C(Nc1ccccc1-c1ccccn1)c1c[nH]c2ccccc2c1=O` [Compound 692, 4-oxo-N-[2-(2-pyridyl)phenyl]-1H-quinoline-3-carboxamide], 25 to 100%; to `O=C(Nc1cc2[nH]ccc2cc1-c1cccnc1)c1c[nH]c2ccccc2c1=O` [Compound 65, 4-oxo-N-[5-(3-pyridyl)-1H-indol-6-yl]-1H-quinoline-3-carboxamide], 25 to 100%.
Still for that read-out and setting: to `CC(C)(C)COC(=O)NCC(C)(C)c1ccc(NC(=O)c2c[nH]c3ccccc3c2=O)cc1` [Compound 341, [2-methyl-2-[4-[(4-oxo-1H-quinolin-3-yl)carbonylamino]phenyl]-propyl]aminoformic acid neopentyl ester] belongs 25 to 100%; to `Cc1ccccc1Oc1ccccc1NC(=O)c1c[nH]c2ccccc2c1=O` [Compound 20, N-[2-(2-methylphenoxy)phenyl]-4-oxo-1H-quinoline-3-carboxamide], 25 to 100%; to `N#Cc1ccccc1NC(=O)c1c[nH]c2ccccc2c1=O` [Compound 95, N-(2-cyanophenyl)-4-oxo-1H-quinoline-3-carboxamide], 25 to 100%.
In the case of `Cc1ccc(C(F)(F)F)cc1NC(=O)c1c[nH]c2cccc(O)c2c1=O` [Compound 676, 5-hydroxy-N-[2-methyl-5-(trifluoromethyl)phenyl]-4-oxo-1H-quinoline-3-carboxamide], the Emax lay in the range of 25 to 100%.
The same measure, in the same setting: to `COc1ccccc1Oc1ccc(C(F)(F)F)cc1NC(=O)c1c[nH]c2ccccc2c1=O` [Compound 3, N-[2-(2-methoxyphenoxy)-5-(trifluoromethyl)phenyl]-4-oxo-1H-quinoline-3-carboxamide] belongs 25 to 100%.
The same measure, in the same setting: to `CC(C)(C)c1cc(C(C)(C)C)c(NC(=O)c2c[nH]c3c(F)ccc(F)c3c2=O)cc1O` [Compound 718, 5,8-difluoro-N-(5-hydroxy-2,4-ditert-butyl-phenyl)-4-oxo-1H-quinoline-3-carboxamide] belongs 25 to 100%; to `CC(C)(C)c1ccc(NC(=O)c2c[nH]c3ccccc3c2=O)c(Cl)c1` [Compound 362, N-(2-chloro-4-tert-butyl-phenyl)-4-oxo-1H-quinoline-3-carboxamide], 25 to 100%.
Turning to `CC(=O)N1CCc2ccc(NC(=O)c3c[nH]c4ccccc4c3=O)cc21` [Compound 233, N-(1-acetylindolin-6-yl)-4-oxo-1H-quinoline-3-carboxamide], the Emax is less than 25%.
On to `O=C(Nc1cc(O)cc(C(F)(F)F)c1)c1c[nH]c2ccccc2c1=O` [Compound 563, N-[3-hydroxy-5-(trifluoromethyl)phenyl]-4-oxo-1H-quinoline-3-carboxamide], for which the Emax fell in the range of 25 to 100%.
With `CC(C)(C)OC(=O)N1CCC2(CCNc3cc(NC(=O)c4c[nH]c5ccccc5c4=O)ccc32)CC1` [Compound 238, 7′-[(4-oxo-1H-quinolin-3-ylcarbonyl)amino]-spiro[piperidine-4,4′(1′H)-quinoline], 2′,3′-dihydro-carboxylic acid tert-butyl ester], the Emax was in the range of 25 to 100%.
For the compound `N#CCc1c[nH]c2cc(NC(=O)c3c[nH]c4ccccc4c3=O)ccc12` [Compound 96, N-[3-(cyanomethyl)-1H-indol-6-yl]-4-oxo-1H-quinoline-3-carboxamide], the Emax fell in the range of 25 to 100%.
As for `O=C(Nc1ccc2cc[nH]c2c1)c1cnc2ccc(Cl)cc2c1O` [Compound 358, 6-chloro-4-hydroxy-N-(1H-indol-6-yl)quinoline-3-carboxamide], the Emax is 25 to 100%.
Still for that read-out and setting: to `Cc1cc(NC(=O)c2c[nH]c3ccccc3c2=O)ccc1F` [Compound 257, N-(4-fluoro-3-methyl-phenyl)-4-oxo-1H-quinoline-3-carboxamide] belongs 25 to 100%.
The same measure, in the same setting: to `CCOc1ccc2[nH]cc(C(=O)Nc3cc4[nH]ccc4cc3C(C)(C)C)c(=O)c2c1` [Compound 681, 6-ethoxy-4-oxo-N-(5-tert-butyl-1H-indol-6-yl)-1H-quinoline-3-carboxamide] belongs 25 to 100%; to `O=C(Nc1ccccc1-c1ccc(F)cc1F)c1c[nH]c2ccccc2c1=O` [Compound 63, N-[2-(2,4-difluorophenyl)phenyl]-4-oxo-1H-quinoline-3-carboxamide], 25 to 100%; to `O=C(Nc1ccc(Sc2ccccc2)cc1)c1c[nH]c2ccccc2c1=O` [Compound 470, 4-oxo-N-(4-phenylsulfanylphenyl)-1H-quinoline-3-carboxamide], 25 to 100%.

Values taken from patent US8802700B2 (Vertex Pharmaceuticals Incorporated, priority 2010, dated 2014).
